# Measurements from patent US7695948B2, “Antibodies that bind TNF-α converting enzyme” (Immunex Corporation, priority 1995, dated 2010).
# Biological target: T1, TACE (Homo sapiens, UniProt P78536)
# T1 construct: The TACE was isolated and purified from the membranes of the human monocytic cell line, THP-1; endogenous in cells; host or cells: THP-1 human monocytic cell line (ATCC TIB 202), stimulated to produce TNF-α; Enzyme was solubilised from plasma membranes and purified by chromatography
# Experiment: TACE activity assay (cleavage of TNF-α peptide substrate, HPLC)
# Assay type: biochemical
# Conditions: dithiothreitol included in plasma membrane isolation from THP-1 cells
# Experimental: As further described in Example 1, infra, a quantitative assay for TACE also may be used which assay involves incubating the peptide substrate, at about 1 mM, with TACE at 37° C. for a fixed period of time; stopping the reaction by the addition of an acid or a metal chelator; and determining the extent of cleavage by HPLC analysis.
# This Example describes a method for purifying TACE. The TACE was isolated and purified from the membranes of the human monocytic cell line, THP-1, (ATCC no. TIB 202) that had been stimulated to produce TNF-α. THP-1 cells were chosen because they produce more TNF-α than HL-60 cells, a more commonly used human monocytic cell line. […]
# This material was incubated at 37° C. for at least 4 hours with the TACE eluted from the DEAE-Sepharose, that had been treated with 1 mM N-methoxysuccinyl-Ala-Ala-Val -chloro-methylketone, 10 μg/ml leupeptin, and 1 mg/ml α1-protease inhibitor, all of which are commercially available. […] Based on this observation, a quantitative assay was established: the peptide, at 1 mM, was incubated with the enzyme at 37° C. for a fixed period of time, in the presence of 0.1 mM dichloroisocoumarin, 1 mM methoxysuccinyl-Ala-Ala-Pro-Val-chloromethyl-ketone, 10 μg/ml leupeptin, 10 μM bestatin, and 1 mg/ml α1-protease inhibitor (Sigma), all of which are commercially available. […]
# T1 sequence (P78536 215-824): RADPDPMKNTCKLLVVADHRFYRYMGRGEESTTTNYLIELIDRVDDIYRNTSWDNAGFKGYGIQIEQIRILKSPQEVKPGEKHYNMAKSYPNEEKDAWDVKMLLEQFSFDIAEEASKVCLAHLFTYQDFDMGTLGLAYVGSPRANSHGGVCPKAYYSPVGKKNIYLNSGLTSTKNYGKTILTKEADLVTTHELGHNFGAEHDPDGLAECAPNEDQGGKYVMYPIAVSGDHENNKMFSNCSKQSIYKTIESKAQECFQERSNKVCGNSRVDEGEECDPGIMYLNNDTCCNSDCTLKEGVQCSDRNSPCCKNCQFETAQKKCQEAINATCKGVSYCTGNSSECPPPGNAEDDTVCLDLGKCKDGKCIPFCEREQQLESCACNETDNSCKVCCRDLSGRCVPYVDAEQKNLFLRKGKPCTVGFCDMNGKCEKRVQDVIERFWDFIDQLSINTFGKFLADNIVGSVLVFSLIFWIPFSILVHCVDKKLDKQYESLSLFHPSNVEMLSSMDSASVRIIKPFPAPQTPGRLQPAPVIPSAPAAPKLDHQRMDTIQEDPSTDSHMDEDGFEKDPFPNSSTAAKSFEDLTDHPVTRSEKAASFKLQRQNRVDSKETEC
structure (smiles),measurement,value
O[C@H](CS)[C@H](O)CS (racemic) [dithiothreitol],TACE activity,blocks TACE activity
